Results on 24 molecules are retold here after PubChem BioAssay AID192 (DTP/NCI, 2004).

In this assay the test system is BDF1 mice, B16 melanoma ip, median survival T/C. The experiment in a line: NCI In Vivo Anticancer Drug Screen. Data for tumor model B16 Melanoma (intraperitoneal) in B6D2F1 (BDF1) mice. Conditions: endpoint: median survival time, higher = longer survival. The gist of the method: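 Mice with transplantable tumors; drug vs vehicle groups; endpoint survival or tumor size; value = T/C.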

The mark [1] stands for this setting: dose: 50.0 mg/kg/injection, schedule: Q01DX009 (ip), vehicle: saline.
Setting [2] is: dose: 100.0 mg/kg/injection, schedule: Q01DX009 (ip), vehicle: saline.
Setting [3] is: dose: 50.0 mg/kg/injection, schedule: Q01DX009 (ip), vehicle: Klucel (hydroxypropylcellulose) (HPC).
Where [4] appears, read: dose: 100.0 mg/kg/injection, schedule: Q01DX009 (ip), vehicle: Klucel (hydroxypropylcellulose) (HPC).
Setting [5] is: dose: 200.0 mg/kg/injection, schedule: Q01DX009 (ip), vehicle: Klucel (hydroxypropylcellulose) (HPC).
Setting [6] is: dose: 100.0 mg/kg/injection, schedule: Q04DX003 (ip), vehicle: Klucel (hydroxypropylcellulose) (HPC).
Setting [7] is: dose: 400.0 mg/kg/injection, schedule: Q01DX009 (ip), vehicle: Klucel (hydroxypropylcellulose) (HPC).
[8] abbreviates: dose: 400.0 mg/kg/injection, schedule: Q04DX003 (ip), vehicle: Klucel (hydroxypropylcellulose) (HPC).
Setting [9] is: dose: 12.5 mg/kg/injection, schedule: Q01DX009 (ip), vehicle: Klucel (hydroxypropylcellulose) (HPC).
Where [10] appears, read: dose: 25.0 mg/kg/injection, schedule: Q01DX009 (ip), vehicle: Klucel (hydroxypropylcellulose) (HPC).
Setting [11] is: dose: 25.0 mg/kg/injection, schedule: Q01DX009 (ip), vehicle: saline with Tween-80.
Where [12] appears, read: dose: 50.0 mg/kg/injection, schedule: Q01DX009 (ip), vehicle: saline with Tween-80.
Where [13] appears, read: dose: 100.0 mg/kg/injection, schedule: Q01DX009 (ip), vehicle: saline with Tween-80.
[14] abbreviates: dose: 200.0 mg/kg/injection, schedule: Q01DX009 (ip), vehicle: saline with Tween-80.

Where “and” joins values, the source holds several entries; their conditions need not be identical. Identical values can stand only once. Toxic doses and inconclusive results are not listed.

In the case of `O=C(CCCN1CCN(c2ccccc2)CC1)c1ccc(F)cc1`, the T/C (dose: 12.5 mg/kg/injection, schedule: Q01DX009 (ip), vehicle: saline) is 112 % of control; the T/C (dose: 25.0 mg/kg/injection, schedule: Q01DX009 (ip), vehicle: saline) was 115 % of control; the T/C under setting [1] is 107 % of control; the T/C under setting [2] was 102 % of control; the T/C (dose: 200.0 mg/kg/injection, schedule: Q01DX009 (ip), vehicle: saline) was 100 % of control.

With `COc1ccc2nc3ccccc3c(NCCNCCO)c2c1`, the T/C (dose: 10.0 mg/kg/injection, schedule: Q01DX009 (ip), vehicle: saline) is 123 % of control.

Turning to `O=c1oc2ccccc2c(O)c1C(c1ccc(C(c2c(O)c3ccccc3oc2=O)c2c(O)c3ccccc3oc2=O)cc1)c1c(O)c2ccccc2oc1=O`, the T/C under setting [3] is 103 % of control, the T/C under setting [4] was 100 % of control and the T/C under setting [5] was 93 % of control.

`CCOC(=O)NC(CC)CO` (stereo not given): the T/C is 100 % of control under setting [4]; 90 % of control under setting [6]; 97 % of control under setting [5]; 100 % of control (dose: 200.0 mg/kg/injection, schedule: Q04DX003 (ip), vehicle: Klucel (hydroxypropylcellulose) (HPC)); 102 % of control under setting [7]; 95 % of control under setting [8].

As to `CC1=C2C(=O)c3ccccc3C2=C(C)S(=O)(=O)O1`, the T/C reads like this: (dose: 50.0 mg/kg/injection, schedule: Q01DX009 (ip), vehicle: carboxymethylcellulose (CMC)) 99 % of control; (dose: 100.0 mg/kg/injection, schedule: Q01DX009 (ip), vehicle: carboxymethylcellulose (CMC)) 87 % of control.

Regarding `COc1cccc2c1C(=N)c1c(O)c3c(c(O)c1C2=O)C[C@@](O)(C(C)=O)C[C@@H]3OC1CC(N)C(O)C(C)O1` (stereo not given in full), the T/C is 177 % of control (dose: 1.0 mg/kg/injection, schedule: Q01DX009 (ip), vehicle: water); 163 % of control (dose: 1.56 mg/kg/injection, schedule: Q01DX001 (ip), vehicle: water); 205 % of control (dose: 2.0 mg/kg/injection, schedule: Q01DX009 (ip), vehicle: water); 159 % of control (dose: 3.13 mg/kg/injection, schedule: Q01DX001 (ip), vehicle: water); 201 % of control (dose: 4.0 mg/kg/injection, schedule: Q01DX009 (ip), vehicle: water); 166 % of control and 168 % of control and 185 % of control (dose: 6.25 mg/kg/injection, schedule: Q01DX001 (ip), vehicle: water). Also, the T/C runs as follows: (dose: 12.0 mg/kg/injection, schedule: Q01DX001 (ip), vehicle: water) 94 % of control; (dose: 12.5 mg/kg/injection, schedule: Q01DX001 (ip), vehicle: water) 164 % of control and 201 % of control; (dose: 20.0 mg/kg/injection, schedule: Q01DX001 (ip), vehicle: water) 95 % of control.

Consider `Cc1ccc(C)c(NC(=O)c2ccccc2Cl)c1`, for which the T/C is, setting by setting: under setting [4], 118 % of control; under setting [5], 93 % of control; under setting [7], 109 % of control.

For `C=CCOCCN1CCN(CCCN2c3ccccc3Sc3ccc(C(F)(F)F)cc32)CC1`, the T/C (dose: 0.31 mg/kg/injection, schedule: Q01DX009 (ip), vehicle: saline) was 102 % of control; the T/C (dose: 0.62 mg/kg/injection, schedule: Q01DX009 (ip), vehicle: saline) is 95 % of control; the T/C (dose: 0.78 mg/kg/injection, schedule: Q01DX009 (ip), vehicle: saline) is 102 % of control; the T/C (dose: 1.56 mg/kg/injection, schedule: Q01DX009 (ip), vehicle: saline) is 114 % of control.

Turning to `NC(=O)N1c2ccccc2C=Cc2ccccc21`, the T/C runs as follows: under setting [9], 112 % of control; under setting [10], 100 % of control; under setting [3], 106 % of control; under setting [4], 91 % of control; under setting [5], 90 % of control.

For the molecule `CC(=O)CC(C)=O.CC(=O)CC(C)=O.CC(=O)CC(C)=O.[V]`, the T/C is, setting by setting: (dose: 3.13 mg/kg/injection, schedule: Q01DX009 (ip), vehicle: saline) 88 % of control; (dose: 6.25 mg/kg/injection, schedule: Q01DX009 (ip), vehicle: saline) 89 % of control.

Consider `[Cl][Pt+2][Cl].[NH-]CC1(C[NH-])CCC1`, for which the T/C was 159 % of control (dose: 1.2 mg/kg/injection, schedule: Q01DX009 (ip), vehicle: carboxymethylcellulose (CMC)); 168 % of control (dose: 2.4 mg/kg/injection, schedule: Q01DX009 (ip), vehicle: carboxymethylcellulose (CMC)); 169 % of control (dose: 3.6 mg/kg/injection, schedule: Q01DX009 (ip), vehicle: carboxymethylcellulose (CMC)).

For the molecule `CCCCCCCCCCCCCC(=O)CCC`, the T/C is 105 % of control under setting [10]; 101 % of control under setting [3]; 88 % of control (dose: 100.0 mg/kg/injection, schedule: Q01DX009 (ip), vehicle: other).

Consider `CCOC(=O)c1[nH]c(C#N)c(C(=O)OCC)c1C`, for which the T/C under setting [11] is 95 % of control, the T/C under setting [12] was 95 % of control and the T/C under setting [13] was 88 % of control.

For the molecule `COc1ccc(C2=CN(S(=O)(=O)c3ccc(C)cc3)CCc3ccccc32)cc1`, the T/C is, setting by setting: (dose: 25.0 mg/kg/injection, schedule: Q04DX003 (ip), vehicle: Klucel (hydroxypropylcellulose) (HPC)) 112 % of control; (dose: 50.0 mg/kg/injection, schedule: Q04DX003 (ip), vehicle: Klucel (hydroxypropylcellulose) (HPC)) 110 % of control; under setting [6], 91 % of control and 111 % of control; under setting [8], 90 % of control.

For `Nc1n[nH]c(C(=O)O)n1`, the T/C is 97 % of control under setting [4], 97 % of control under setting [5] and 97 % of control under setting [7].

Consider `Cc1ccc(Cl)cc1NC(=O)Nc1ccc(C)c(NC(=O)Nc2cc(Cl)ccc2C)c1`, for which the T/C under setting [13] is 90 % of control; the T/C under setting [14] was 95 % of control; the T/C (dose: 400.0 mg/kg/injection, schedule: Q01DX009 (ip), vehicle: saline with Tween-80) is 90 % of control.

Take `CC1CCC2(C(=O)O)CCC3(C)C(=CCC4C5(C)CCC(O)C(C)(C)C5CCC43C)C2C1C` (stereo not given): the T/C is, setting by setting: under setting [4], 98 % of control; under setting [5], 91 % of control.

Turning to `CCC(C)C(N)C(=O)NC(CC(N)=O)C(=O)NC(CC(C)C)C(=O)NC(CCCCN)C(=O)NC(C)C(=O)NC(CC(C)C)C(=O)NC(C)C(=O)NC(C)C(=O)NC(CC(C)C)C(=O)NC(C)C(=O)NC(CCCCN)C(=O)NC(CCCCN)C(=O)NC(C(=O)NC(CC(C)C)C(N)=O)C(C)CC` (stereo not given), the T/C reads like this: (dose: 1.0 mg/kg/injection, schedule: Q01DX009 (ip), vehicle: Klucel (hydroxypropylcellulose) (HPC)) 97 % of control; (dose: 2.0 mg/kg/injection, schedule: Q01DX009 (ip), vehicle: Klucel (hydroxypropylcellulose) (HPC)) 97 % of control; (dose: 4.0 mg/kg/injection, schedule: Q01DX009 (ip), vehicle: Klucel (hydroxypropylcellulose) (HPC)) 91 % of control.

Take `COc1ccccc1C(C#N)N1CCCN(C(C#N)c2ccccc2OC)C1c1cc(Cl)cc(Cl)c1O` (stereo not given): the T/C is 104 % of control (dose: 6.25 mg/kg/injection, schedule: Q01DX009 (ip), vehicle: saline with Tween-80); 101 % of control (dose: 12.5 mg/kg/injection, schedule: Q01DX009 (ip), vehicle: saline with Tween-80); 103 % of control under setting [11]; 91 % of control and 124 % of control under setting [12].

Consider `COC1=CC(=O)C(O)=C(CC2(C)C(C)CCC3(C)C2CCCC3(C)C)C1=O` (stereo not given), for which the T/C reads like this: (dose: 3.12 mg/kg/injection, schedule: Q01DX009 (ip), vehicle: Klucel (hydroxypropylcellulose) (HPC)) 91 % of control; (dose: 6.25 mg/kg/injection, schedule: Q01DX009 (ip), vehicle: Klucel (hydroxypropylcellulose) (HPC)) 96 % of control; under setting [9], 96 % of control; under setting [10], 104 % of control; under setting [3], 100 % of control; under setting [4], 100 % of control.

Turning to `O=C(Nc1ccc(F)cc1)Nc1cccc2ccccc12`, the T/C reads like this: under setting [4], 97 % of control; under setting [5], 94 % of control.

Regarding `CCCCCCCCCCCCCCCC(=O)N(CCCN)C(C)CCCN(CC)CC` (stereo not given), the T/C was 105 % of control under setting [9], 100 % of control under setting [10], 107 % of control under setting [3] and 101 % of control under setting [4].

Take `CC1CCC2(CC1)CCN(CCCN(C)C)CC2`: the T/C runs as follows: under setting [1], 99 % of control; under setting [2], 110 % of control.

For `COC(CCCl)c1ccc(Cl)cc1` (stereo not given), the T/C by setting is: under setting [12], 102 % of control; under setting [13], 97 % of control; under setting [14], 87 % of control.
